Here are results for two compounds from the NIST ThermoML archive (doi:10.1016/j.jct.2010.06.003).

The conditions of series [1]: Crystal; DTA.
Series [2] is described as follows: Molar enthalpy of transition or fusion. As to conditions: Crystal; DSC.

± gives the expanded uncertainty stated by the source.

Consider `O=c1cc(O)c2ccccc2o1` [4-hydroxycoumarin], for which the Triple point temperature in series [1] came to 483.62 ± 0.91 K. Further, the “Molar enthalpy of transition or fusion” value in series [2] came to 5.54 ± 0.141 kcal/mol.

On to `O=c1oc2ccccc2cc1O` [3-hydroxycoumarin], for which the Triple point temperature in series [1] is 425.62 ± 0.39 K. Also, the “Molar enthalpy of transition or fusion” value in series [2] stood at 6.48 ± 0.146 kcal/mol.
